“Also recorded” adds a separate entry of the source.
Tests used:
[1] = target: human D1R (Homo sapiens, UniProt P21728); test: Human D1R radioligand binding ([3H]-SCH23390, LTK cells)
Procedure: (§1) Binding assays were performed using stably expressed human D1R LTK, HEK293 rat D1R (rD1R), CHO human D2R (hD2R), CHO human D3R, and Millipore CHEM-1 human D5R (HTS129M) cell lines or primary striatal tissue from cynomolgus monkey brain. […] These ligand and tissue concentrations were used in time course studies to determine linearity and equilibrium conditions for binding. Binding reached equilibrium with the specified amount of tissue by 30 min at 37 °C for hD1R, rD1R, mD1R, 20 min at 37 °C for D2R and D3R and 60 min at room temperature for D5R. […] Membrane radioligand levels were determined by liquid scintillation counting of the filter plates in 50 µl Ecolume. […] Ki values were calculated according to the Cheng-Prusoff equation.

[2] = target: human D2R (hD2R) (Homo sapiens, UniProt P14416); test: Human D2R radioligand binding ([3H]-spiperone, CHO)
Procedure: as §1

[3] = target: human D3R (Homo sapiens, UniProt P35462); test: Human D3R radioligand binding ([3H]-7-OH-DPAT, CHO)
Procedure: as §1

[4] = target: human dopamine D5 receptor (hD5R) (Homo sapiens, UniProt P21918); test: hD5R cAMP HTRF assay (stable HEK293); settings: for Efficacy hD5R cAMP: percent of maximum response of 5 µM dopamine
[5] = target: human D5R (Homo sapiens, UniProt P21918); test: Human D5R radioligand binding ([3H]-SCH23390, CHEM-1)
Procedure: as §1

[6] = target: human dopamine D1 receptor (hD1R) (Homo sapiens, UniProt P21728); test: hD1R cAMP HTRF assay (stable HEK293); settings: percent of maximum response of 5 µM dopamine
[7] = system: human D1R / β-arrestin2-GFP in U2OS cells; test: β-arrestin2-GFP membrane recruitment, TIRFM, U2OS cells; format: cell-based; settings: U2OS cells expressing human D1R, 1 μM agonist, 10 min
Procedure: This stable U2OS cell line was generated, obtained and licensed from Professor Marc G. Caron, Duke University, Durham, NC, USA. […] The U2OS cells were cultured under antibiotic selection in DMEM (Invitrogen) containing 25 mM glucose and 4 mM L-glutamine supplemented with 10% dialyzed fetal bovine serum, […] Geneticin, […] Zeocin, and 100 U/ml penicillin/streptomycin (all from Invitrogen) and incubated at 37 °C in 5% CO2. Cells from passage four through ten were used in these experiments. Cells were grown in 35 mm glass bottomed imaging dishes (Mattek Corp). Cells were incubated for 1 h in serum free media (SFM) and subsequently treated for 10 min at 37 °C with 0.01% DMSO (control) or 1 μM of all test compounds dissolved in SFM followed by immediate fixation on ice with a 4% paraformaldehyde/1× phosphate buffered saline solution.
TIRFM was used to visualize proteins at the plasma membrane of cells such as D1 receptors and recruited β-arrestin-GFP[65]. All images were captured using a Zeiss PS.1 Elyra Superresolution fluorescence microscope equipped with TIRF module.
Custom image analysis scripts were developed to automatically identify and quantify β-arrestin membrane recruitment. We employed standard methods of image processing based on grayscale morphology. First 16bit images were transformed to 8bit range via square root transformation to improve identification of punctate structure of varying intensity. Images were smoothed with small Gaussian kernel to eliminate noise (h = 2px, σ = 1). At the next step images were transformed via tophat operation with large kernel (radius 30px) to eliminate non-uniformity of the background. Second tophat transform with small kernel (radius 5px) was used to enhance signal and eliminate local intensity variation around puncta. This image was then processed to find locations of puncta intensity peaks via non-maximal suppression filter with 3px radius of region considered in non-maximal suppression, and threshold 20. Finally the boundaries of puncta were identified using marker controlled watershed operation with peaks serving as foreground markers. After having identified each puncta, we used 8bit transformed but otherwise non-processed images to quantify intensity and area of each region. We focused on two endpoints, number of puncta per cell and integrated intensity of puncta per cell (sum of the products of average intensity and area of each puncta within a cell), both adjusted for cell area as described below. The boundaries of the cells were identified via Otsu's method, followed by hole filling and identification of the largest closely connected component. The area of the foreground was used as normalization factor to account for occasional differences in cell areas in the field of view. Specifically all foreground areas across experiment were pooled and divided by the median of the areas to obtain normalization factor for each image. This factor was then used for adjustment for number of puncta and integrated intensity of puncta, which scale with the number of cells. Puncta outside of cell boundaries were filtered out.
The results were aggregated over batches of cells recorded at the same time, with three or more batches per condition, approximately 20 cells per well. The statistical significance was tested via one-way ANOVA with treatment as a factor. To address the problem of severe inequality of variances across the treatment groups assessed via Bartlett′s test, we used square root transformation. All statistical results for the number of puncta per cell and integrated intensity of puncta per cell are presented for transformed variables. Significant ANOVA findings were followed with post-hoc comparisons with Dunnett′s procedure in case of comparisons with the control group or with false discover rate adjustment[69] otherwise. All statistical tests were performed two-tailed at a 5% level of significance.

[8] = Rat pharmacokinetic studies; format: in vivo, Wistar Hannover rat
Procedure: Rat pharmacokinetic studies were conducted at BioDuro, Pharmaceutical Product Development, Inc. (Shanghai, China). Wistar Hannover rats (227–293 gram weight) were obtained from Vital River Laboratories (China). All animal studies were conducted in accordance with the Pfizer Institutional Animal Care and Use Committee (Groton, CT), using protocols approved by Pfizer PDM′s Global BA Committee (2009). Jugular vein-cannulated male Wistar Hanover rats were maintained on a 12 h light/dark cycle for a minimum of three days in a temperature-controlled and humidity-controlled environment with free access to food and water. Individual animals (n = 2 or 3 per dose/route) were administered a single dose of compound by either intravenous injection via tail vein or oral gavage based on body weight. […] The PF-6142 intravenous dose (1 mg/kg) was formulated in saline acidified with three molar equivalents of 1 N hydrochloric acid and the PF-6142 oral dose (5 mg/kg) was formulated in 0.5% methylcellulose. […] Formulations were agitated until all of the test article was dissolved. […] From each rat, serial blood samples were collected via jugular vein cannula prior to dose administration and at the following time points post-dose: 0.033 (i.v. only), 0.083, 0.25, 0.5, 1, 2, 4, 7, and 24 h. […] All blood samples were placed on wet ice until centrifugation. Following centrifugation, the plasma was transferred to polypropylene tubes and stored frozen at either −20 °C to −80 °C until analysis. Urine was collected from all intravenous-dosed rats into collection tubes from the collection intervals of 0–7 h and 7–24 h post-dose. […] All urine samples were stored at −80 °C until analysis. All samples were processed for quantitation of compound concentrations using protein precipitation methodology followed by analysis using liquid chromatography-tandem mass spectrometry (LC-MS/MS). […] The pharmacokinetic parameters (including those in Supplementary Table 3) were computed by non-compartmental analysis[61] using Watson Bioanalytical LIMS version 7.4 (Thermo Fischer Scientific, CA).

[9] = system: D1R in rat striatal neurons; test: D1R desensitization in primary rat striatal neurons (cAMP after SKF-81297 challenge); format: cell-based; settings: rat striatal neurons pretreated 120 min with 10 μM agonist
Procedure: Striatal neurons were chosen for the desensitization studies because they express endogenous D1 receptors and are a physiologically relevant tissue for examining neurotransmitter receptor desensitization in vitro. […] Both hemispheres of the striatum were microdissected from the embryonic rat brains and placed into HBSS. All isolated tissue was combined and washed 1× with HBSS, followed by trypsinization using a 0.05% trypsin-EDTA solution for 15 min at 37 °C. […] The cell suspension was added to the top of 5 ml complete MEM media with 1 ml of 100% FBS serum at bottom of a 15 ml tube and centrifuged at 1450 rpm for 5 min. The […] and diluted 10-20× in complete MEM and cell density determined. Cells were plated at a density of 35,000 cells/well in poly-ornithine/laminin coated 96 well plates (Biocoat, BD Falcon) and cultured in Neurobasal media supplemented with B27, 1× Glutamax, and penicillin/streptomycin (100 U/mL) (all from Invitrogen) at 37 °C in 5% CO2 for 14-16 days prior to assay. […] After the pretreatment, cells were washed twice at 5 min intervals with 250 μl/well fresh Neurobasal media. […] The concentration of cAMP (nM) from treated wells was interpolated from a cAMP standard curve by non-linear regression least squares analysis using Graphpad Prism 5.02. […] The percent desensitization was calculated as the percent decrease in cAMP relative to vehicle control. Statistical differences were compared by a one-way ANOVA with Dunnett's post-test analysis using Graphpad Prism 5.02.

[10] = system: cynomolgus monkeys; test: Monkey spontaneous eye blink rate (EBR); format: in vivo, Macaca fasicularis; settings: monkey; data not shown
Procedure: Increase in spontaneous EBR has been previously shown with D1 agonists and partial agonists. To confirm the specificity of the response in our particular assay set up for D1 activation, we verified that the D1 receptor antagonist SCH-39166 fully blocks the increased eye blink response of non-catechol full D1 agonist that is a close structural analog of the compounds in this paper (data not shown). All procedures involving animals were conducted with approval of the Pfizer Institutional Animal Care and Use Committee (Groton, CT) and compliant with the regulations and standards of the Animal Welfare Act (9CFR2, 9CFR3). Three male Cynomolgus macaques (Macaca fasicularis) of Mauritian origin, 7–10 years old, SPF for CHV-1, SIV, STLV1 and SRV 1, 2, 5 were used. Animals were exposed to 12 h light/dark cycle (lights on 6:00 AM – 6:00 PM). […] EBRS were recorded from chaired animals for 2 min at 10 min intervals by a trained observer through direct visual observation who was blinded to experimental conditions. Animals were chaired at approximately 7:30 AM. After vehicle or compound administration, eye blinks were recorded during the following intervals: from 10 to 50 min (0–1 h), 130 to 170 min (2–3 h), 310 to 350 min (5–6 h). Animals were returned to their home cages between two consecutive sessions and after the final recording of the day. Blood samples (1 ml) were collected from the femoral vein at 1 and 5 h after the first dose to quantitate plasma compound levels. […] A77636 was dissolved in 0.9% sterile saline, formulated fresh prior to administration, and given once per day for 3 days. […] Vehicle control was administered on day 0.
EBR data were first converted to blinks per minute. EBR were averaged by binning into 3 periods: Period 1 (0–1 h after the first dose) EBR = mean of 10, 20, 30, 40, and 50 min recordings; Period 2 (2–3 h after the first dose) EBR = mean of 130, 140, 150, 160, and 170 min recordings; Period 3 (5–6 h after the first dose) EBR = mean of 310, 320, 330, 340, and 350 min recordings. For Fig. 5c EBR data were averaged by binning data from periods 1 through 3 as daily EBR. Data from each animal was then normalized to their respective Day 1 EBR and expressed as percent of Day 1 EBR for each drug. EBR data were analyzed with SAS® 9.4 (SAS Institute Inc. Cary, NC) using a mixed linear model (Mixed Procedure) for repeated measures. The model included treatment, day, time period, and their interactions as fixed effects, and animal and animal-by-day interaction as random effects. A first order autoregressive model was used for longitudinal covariance structure. Differences between least squares means across days, overall and for each time period, were tested and adjusted for multiple comparisons via Tukey method. […]

Sequence of human D3R (P35462 whole entry): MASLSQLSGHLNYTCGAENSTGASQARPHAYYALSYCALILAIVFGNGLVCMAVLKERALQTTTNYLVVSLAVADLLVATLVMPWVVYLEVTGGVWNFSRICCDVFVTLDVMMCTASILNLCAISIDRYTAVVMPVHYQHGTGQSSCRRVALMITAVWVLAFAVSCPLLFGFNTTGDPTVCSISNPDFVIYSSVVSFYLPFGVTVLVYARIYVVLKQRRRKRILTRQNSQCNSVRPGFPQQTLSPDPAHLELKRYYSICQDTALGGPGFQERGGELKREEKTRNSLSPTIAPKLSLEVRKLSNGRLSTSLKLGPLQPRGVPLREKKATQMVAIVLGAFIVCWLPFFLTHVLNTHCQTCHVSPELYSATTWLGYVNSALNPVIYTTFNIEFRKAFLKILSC
Sequence of human dopamine D5 receptor (hD5R) (P21918 whole entry): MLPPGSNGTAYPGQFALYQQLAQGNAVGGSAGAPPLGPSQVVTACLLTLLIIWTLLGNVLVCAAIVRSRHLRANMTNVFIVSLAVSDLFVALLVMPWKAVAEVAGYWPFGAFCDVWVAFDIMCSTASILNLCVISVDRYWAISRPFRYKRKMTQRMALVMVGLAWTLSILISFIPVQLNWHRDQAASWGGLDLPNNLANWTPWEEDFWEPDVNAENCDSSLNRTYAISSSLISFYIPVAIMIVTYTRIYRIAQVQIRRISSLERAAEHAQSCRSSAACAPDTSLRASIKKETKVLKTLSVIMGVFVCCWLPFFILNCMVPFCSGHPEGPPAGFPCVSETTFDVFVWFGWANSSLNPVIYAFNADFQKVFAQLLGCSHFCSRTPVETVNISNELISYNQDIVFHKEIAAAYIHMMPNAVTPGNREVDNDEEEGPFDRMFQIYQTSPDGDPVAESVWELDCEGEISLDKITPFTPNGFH
Sequence of human dopamine D1 receptor (hD1R) (P21728 whole entry): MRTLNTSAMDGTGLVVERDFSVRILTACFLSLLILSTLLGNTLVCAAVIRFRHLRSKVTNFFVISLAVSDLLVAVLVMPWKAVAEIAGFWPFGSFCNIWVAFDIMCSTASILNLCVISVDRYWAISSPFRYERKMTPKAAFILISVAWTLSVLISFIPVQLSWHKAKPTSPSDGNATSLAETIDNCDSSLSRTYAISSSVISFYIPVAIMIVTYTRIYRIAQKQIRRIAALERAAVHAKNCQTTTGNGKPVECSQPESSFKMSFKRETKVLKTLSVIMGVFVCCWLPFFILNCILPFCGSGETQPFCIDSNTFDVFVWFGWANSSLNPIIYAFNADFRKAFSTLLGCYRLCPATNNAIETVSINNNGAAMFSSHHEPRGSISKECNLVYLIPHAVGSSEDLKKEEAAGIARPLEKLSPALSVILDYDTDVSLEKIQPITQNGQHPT
Sequence of human D1R (P21728 whole entry): as above
Sequence of human D2R (hD2R) (P14416 whole entry): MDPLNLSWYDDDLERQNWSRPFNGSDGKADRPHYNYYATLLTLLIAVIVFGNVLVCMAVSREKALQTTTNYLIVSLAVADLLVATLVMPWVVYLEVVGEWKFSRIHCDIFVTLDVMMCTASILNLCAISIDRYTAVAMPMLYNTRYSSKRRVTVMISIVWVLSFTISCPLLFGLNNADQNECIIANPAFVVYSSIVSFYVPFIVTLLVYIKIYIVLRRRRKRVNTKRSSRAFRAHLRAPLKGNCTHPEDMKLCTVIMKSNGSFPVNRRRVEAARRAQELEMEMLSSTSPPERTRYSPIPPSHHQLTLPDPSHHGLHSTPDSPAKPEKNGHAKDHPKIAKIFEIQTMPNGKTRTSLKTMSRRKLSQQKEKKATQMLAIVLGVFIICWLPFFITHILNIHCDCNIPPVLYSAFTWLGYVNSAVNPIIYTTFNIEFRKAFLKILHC
Sequence of human D5R (P21918 whole entry): as the sequence (P21918 whole entry) above

With `Cn1nccc1-c1ccc(Oc2nccc3occc23)cc1` [PF-4211] the Ki [1] was 3.14 ± 0.335 µM, the Ki [2] was > 4.28 µM and the Ki [3] was > 0.671 µM. The EC50 [4] was 1.78 ± 0.144 µM, the “Efficacy hD5R cAMP” value [4] was 53±1 and the Ki [5] was 1.89 ± 0.508 µM.

With `Oc1cc2c(cc1O)[C@H]1c3ccccc3CN[C@@H]1CC2` (racemic) [Dihydrexidine, reference compound] the “Efficacy hD1R cAMP” value [6] was 100±2, the Ki [3] was 0.387 ± 0.021 µM and the “β-arrestin-GFP recruitment to the plasma membrane (TIRFM)” value (from here on “β-arrestin-GFP recruitment”) [7] was “significantly higher signal”.

For `Oc1cc2c(c(Cl)c1O)CCNCC2c1ccccc1` (stereo not shown) [SKF-81297, reference compound], the “Efficacy hD5R cAMP” value [4] was 100±1 and the “β-arrestin-GFP recruitment” value [7] was “membrane associated β-arrestin puncta appeared rapidly”.

With `Oc1cc2c(cc1O)C(c1ccccc1)CNCC2` (stereo not shown) [SKF-38393, reference compound] the CL ([8]; intravenous (1 mg/kg; PF-2334 0.1 mg/kg)) was “rapid clearance”, the clearance ([8]; male, Wistar Hannover, plasma, iv) was 245 mL/min/kg and the Vd ([8]; male, Wistar Hannover, plasma, iv, read-out: Vdss) was 3.9 L/kg. The bioavailability ([8]; male, Wistar Hannover, plasma, oral bioavailability) was 9.5%, the half-life ([8]; male, Wistar Hannover, plasma, read-out: t½ (converted)) was 24 min and the F ([8]; oral bioavailability) was “low oral bioavailability”. The “Efficacy hD1R cAMP” value [6] was 41±3, the Ki [3] was > 0.671 µM and the “percent desensitization of D1R cAMP response to 1 μM SKF-81297 challenge” value [9] was 40–60%.

With `NCCc1ccc(O)c(O)c1` [Dopamine, reference compound] the “β-arrestin-GFP recruitment” value [7] was “membrane associated β-arrestin puncta appeared rapidly; also recorded: significantly higher signal”.

With `CN1CCc2cc(Cl)c(O)cc2[C@H]2c3ccccc3CC[C@@H]21` [SCH-39166] the “blockade of EBR increase induced by a non-catechol full D1 agonist” value [10] was “fully blocks”.
